Experimental data taken from patent US20240150377A1, “MODULATORS OF CYSTIC FIBROSIS TRANSMEMBRANE CONDUCTANCE REGULATOR” (VERTEX PHARMACEUTICALS INCORPORATED, priority 2020, published 2024).
pEC50: −log10 of the molar value. Where two headings read alike, the source gives them in different places.

Biological target: CFTR (Homo sapiens, UniProt P13569)
Experiment: Membrane potential dye, Enteroid Assay B
Type: cell-based
Conditions: for Ent. B Max Activity: chloride transport as % of triple combination control (Enteroid Assay B); for pEC50: read-out: Ent. B EC50
Experimental: Base medium (ADF+++) consisted of Advanced DMEM/Ham's F12, 2 mM Glutamax, 10 mM HEPES, […] penicillin/streptomycin.
Intestinal enteroid maintenance medium (IEMM) consisted of ADF+++, 1× B27 supplement, 1× N2 supplement, 1.25 mM N-acetyl cysteine, 10 mM Nicotinamide, 50 ng/mL hEGF, 10 nM Gastrin, 1 μg/mL hR-spondin-1, 100 ng/mL hNoggin, TGF-b type 1 inhibitor A-83-01, 100 μg/mL Primocin, 10 μM P38 MAPK inhibitor SB202190.
Bath 1 Buffer consisted of 1 mM MgCl2, 160 mM NaCl, 4.5 mM KCl, 10 mM HEPES, 10 mM Glucose, 2 mM CaCl2).
Chloride Free Buffer consisted of 1 mM Magnesium Gluconate, 2 mM Calcium Gluconate, 4.5 mM Potassium Gluconate, 160 mM Sodium Gluconate, 10 mM HEPES, 10 mM Glucose.
BathI Dye Solution consisted of Bath 1 Buffer, 0.04% Pluronic F127, 20 μM Methyl Oxonol, 30 μM CaCCinh-A01, 30 μM Chicago Sky Blue.
Chloride Free Dye Solution consisted of Chloride Free Buffer, 0.04% Pluronic F127, 20 μM Methyl Oxonol, 30 μM CaCCinh-A01, 30 μM Chicago Sky Blue.
Chloride Free Dye Stimulation Solution consisted of Chloride Free Dye Solution, 10 μM forskolin, 100 μM IBMX, and 300 nM Compound III.
Human intestinal epithelial enteroid cells were obtained from the Hubrecht Institute for Developmental Biology and Stem Cell Research, Utrecht, The Netherlands and expanded in T-Flasks as previously described (Dekkers J F, Wiegerinck C L, de Jonge H R, Bronsveld I, Janssens H M, de Winter-de Groot K M, Brandsma A M, de Jong N W M, Bijvelds M J C, Scholte B J, Nieuwenhuis E E S, van den Brink S, Clevers H, van der Ent C K, Middendorp S and M Beekman J M. A functional CFTR assay using primary cystic fibrosis intestinal organoids. Nat Med. 2013 July;19(7):939-45.).
3. Enteroid Cell Harvesting and Seeding
Cells were recovered in cell recovery solution, collected by centrifugation at 650 rpm for 5 min at 4° C., resuspended in TrypLE and incubated for 5 min at 37° C. Cells were then collected by centrifugation at 650 rpm for 5 min at 4° C. and resuspended in IEMM containing 10 μM ROCK inhibitor (RI). The cell suspension was passed through a 40 μm cell strainer and resuspended at 1×10^6 cells/mL in IEMM containing 10 μM RI. Cells were seeded at 5000 cells/well into multi-well plates and incubated for overnight at 37° C., 95% humidity and 5% CO2 prior to assay.
5. Membrane Potential Dye, Enteroid Assay B
Enteroid cells were incubated with test compound in IEMM for 18-24 hours at 37° C., 95% humidity and 5% CO2. […] Briefly, cells were washed 5 times in Bath 1 Buffer. Bath 1 Dye Solution was added and the cells were incubated for 25 min at room temperature. Following dye incubation, cells were washed 3 times in Chloride Free Dye Solution. Chloride transport was initiated by addition of Chloride Free Dye Stimulation Solution and the fluorescence signal was read for 15 min. […] Chloride transport was then expressed as a percentage of the chloride transport following treatment with 1 μM (14S)-8-[3-(2-{Dispiro[2.0.2.1]heptan-7-yl}ethoxy)-1H-pyrazol-1-yl]-12,12-dimethyl-2λ^6-thia-3,9,11,18,23-pentaazatetracyclo[17.3.1.111,14.05,10]tetracosa-1(22),5,7,9,19(23),20-hexaene-2,2,4-trione, 3 μM (R)-1-(2,2-difluorobenzo[d][1,3]dioxol-5-yl)-N-(1-(2,3-dihydroxypropyl)-6-fluoro-2-(1-hydroxy-2-methylpropan-2-yl)-1H-indol-5-yl)cyclopropanecarboxamide and 300 nM acute N-[2,4-bis(1,1-dimethylethyl)-5-hydroxyphenyl]-1,4-dihydro-4-oxoquinoline-3-carboxamide triple combination control (% Activity).

[1] = Table 8, human enteroid cells, 18-24 hours, acute 10 μM forskolin and 300 nM ivacaftor

Sequence of CFTR (P13569 with tags, fused parts or gaps DEL508-508): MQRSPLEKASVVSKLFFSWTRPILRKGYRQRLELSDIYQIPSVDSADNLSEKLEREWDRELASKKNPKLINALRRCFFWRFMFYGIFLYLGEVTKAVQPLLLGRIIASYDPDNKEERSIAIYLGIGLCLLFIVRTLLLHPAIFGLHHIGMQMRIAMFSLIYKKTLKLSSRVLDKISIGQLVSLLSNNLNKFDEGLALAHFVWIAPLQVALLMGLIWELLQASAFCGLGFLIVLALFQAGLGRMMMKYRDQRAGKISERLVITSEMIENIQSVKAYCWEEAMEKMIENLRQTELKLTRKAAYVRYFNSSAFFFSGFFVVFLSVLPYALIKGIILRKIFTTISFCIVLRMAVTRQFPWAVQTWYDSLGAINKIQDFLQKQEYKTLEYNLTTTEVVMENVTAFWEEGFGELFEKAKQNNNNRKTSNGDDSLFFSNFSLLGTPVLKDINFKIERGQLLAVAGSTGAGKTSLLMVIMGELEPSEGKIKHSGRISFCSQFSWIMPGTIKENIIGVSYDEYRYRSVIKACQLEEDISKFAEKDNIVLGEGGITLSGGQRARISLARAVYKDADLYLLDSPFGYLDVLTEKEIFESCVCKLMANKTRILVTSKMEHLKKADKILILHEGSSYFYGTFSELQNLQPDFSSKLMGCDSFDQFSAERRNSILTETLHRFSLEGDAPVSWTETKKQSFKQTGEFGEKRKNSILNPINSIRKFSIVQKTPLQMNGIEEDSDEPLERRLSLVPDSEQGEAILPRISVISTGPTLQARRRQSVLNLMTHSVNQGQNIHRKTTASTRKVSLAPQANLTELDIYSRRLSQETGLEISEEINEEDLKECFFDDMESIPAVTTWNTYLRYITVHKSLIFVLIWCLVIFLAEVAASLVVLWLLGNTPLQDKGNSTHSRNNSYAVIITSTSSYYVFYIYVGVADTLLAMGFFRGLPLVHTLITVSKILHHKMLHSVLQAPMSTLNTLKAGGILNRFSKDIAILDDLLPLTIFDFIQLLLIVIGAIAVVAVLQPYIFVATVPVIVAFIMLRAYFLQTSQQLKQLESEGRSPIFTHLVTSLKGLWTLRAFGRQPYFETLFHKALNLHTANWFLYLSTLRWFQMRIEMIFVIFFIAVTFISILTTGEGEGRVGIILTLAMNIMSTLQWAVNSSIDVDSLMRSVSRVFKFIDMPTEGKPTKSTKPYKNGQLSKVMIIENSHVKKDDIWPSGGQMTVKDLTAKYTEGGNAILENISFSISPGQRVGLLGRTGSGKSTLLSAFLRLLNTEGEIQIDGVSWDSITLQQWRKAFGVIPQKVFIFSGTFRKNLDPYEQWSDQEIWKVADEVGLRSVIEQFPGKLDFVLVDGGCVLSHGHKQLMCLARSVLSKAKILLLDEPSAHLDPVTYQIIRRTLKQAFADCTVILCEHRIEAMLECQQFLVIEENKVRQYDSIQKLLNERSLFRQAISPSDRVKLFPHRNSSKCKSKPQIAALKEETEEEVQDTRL

Row | Compound | Ent. B Max Activity (Table 8) | pEC50 [1] | also measured
1 | Cc1cccc(C)c1-c1cc2nc(n1)NS(=O)(=O)c1cccc(c1)C(=O)N(CCCC(C)(C)O)[C@H](CCC(C)(C)O)CO2 [Compound 660] | + (+ is <30%) |  | 
2 | Cc1cccc(C)c1-c1cc2nc(n1)NS(=O)(=O)c1cc(nn1C)C(=O)N(Cc1cccnc1)[C@H](CC(C)(C)C)CO2 [Compound 933] | + (+ is <30%) |  | 
3 | Cc1cccc(C)c1-c1cc2nc(n1)NS(=O)(=O)c1cccc(c1)C(=O)N(CCCOC(F)(F)F)[C@H](CC(C)C)CO2 [Compound 42, (11R)-6-(2,6-Dimethylphenyl)-11-isobutyl-2,2-dioxo-12-[3-(trifluoromethoxy)propyl]-9-oxa-2λ^6-thia-3,5,12,19-tetrazatricyclo[12.3.1.14,8]nonadeca-1(18),4(19),5,7,14,16-hexaen-13-one] | +++ (+++ is >60%) | > 6.00 | 
4 | CCOC(=O)CCCCN1C(=O)c2cc(nn2C)S(=O)(=O)Nc2nc(cc(-c3c(C)cccc3C)n2)OC[C@H]1CC(C)(C)C [Compound 922] | ++ (++ is 30-60%) | 4.52 to 5.52 | 
5 | COc1ncc(CN2C(=O)c3cccc(c3)S(=O)(=O)Nc3nc(cc(-c4c(C)cccc4C)n3)OC[C@H]2CC(C)(C)C)cn1 [Compound 1101] | +++ (+++ is >60%) | > 6.00 | 
6 | Cc1cccc(C)c1-c1cc2nc(n1)NS(=O)(=O)c1cccc(c1)C(=O)N(Cc1cccnc1)[C@H](CC(C)(C)C)CO2 [Compound 1086] | +++ (+++ is >60%) | > 6.00 | 
7 | Cc1cccc(C)c1-c1cc2nc(n1)NS(=O)(=O)c1cccc(c1)C(=O)N(CC1CCC(C)(O)CC1)[C@H](CC(C)(C)C)CO2 (single isomer, unassigned) [Compound 150] | +++ (+++ is >60%) | > 6.00 | 
8 | Cc1cccc(C)c1-c1cc2nc(n1)NS(=O)(=O)c1cccc(c1)C(=O)N(Cc1ccncn1)[C@H](CC(C)(C)C)CO2 [Compound 1098] | +++ (+++ is >60%) | > 6.00 | 
9 | Cc1cccc(C)c1-c1cc2nc(n1)NS(=O)(=O)c1cccc(c1)C(=O)N(Cc1ccc(C(=O)N(C)C)cn1)[C@H](CC(C)(C)C)CO2 [Compound 1110] | +++ (+++ is >60%) | > 6.00 | 
10 | Cc1cccc(C)c1-c1cc2nc(n1)NS(=O)(=O)c1cccc(c1)C(=O)N(CC1CC(C)(O)C1)[C@H](CC(C)(C)C)CO2 (stereo partly shown) [Compound 665] | +++ (+++ is >60%) | > 6.00 | 
11 | Cc1cccc(C)c1-c1cc2nc(n1)NS(=O)(=O)c1cccc(c1)C(=O)N(CC1CN(C(=O)CO)C1)[C@H](CC(C)(C)C)CO2 [Compound 319] |  |  | Ent. B Max Activity (%) (Table 9): + (+ is <300%); pEC50 (Table 9): 4.52 to 5.52
12 | Cc1cccc(C)c1-c1cc2nc(n1)NS(=O)(=O)c1cccc(c1)C(=O)N(Cc1ncccc1C(C)(C)O)[C@H](CC(C)(C)C)CO2 [Compound 385] |  |  | Ent. B Max Activity (%) (Table 9): +++ (+++ is >600%); pEC50 (Table 9): > 6.00
13 | Cc1cccc(C)c1-c1cc2nc(n1)NS(=O)(=O)c1cccc(c1)C(=O)N(CCCO)[C@H](CC(C)C)CO2 [Compound 96, (11R)-6-(2,6-Dimethylphenyl)-12-(3-hydroxypropyl)-11-(2-methylpropyl)-9-oxa-2λ^6-thia-3,5,12,19-tetraazatricyclo[12.3.1.14,8]nonadeca-1(18),4,6,8(19),14,16-hexaene-2,2,13-trione] | +++ (+++ is >60%) | > 6.00 | 
14 | Cc1cccc(C)c1-c1cc2nc(n1)NS(=O)(=O)c1cccc(c1)C(=O)N(Cc1ccccc1)[C@H](CC(C)(C)C)CO2 [Compound 1087] | +++ (+++ is >60%) | > 6.00 | 
15 | Cc1cccc(C)c1-c1cc2nc(n1)NS(=O)(=O)c1cccc(c1)C(=O)N(Cc1ccc(C(N)=O)cn1)[C@H](CC(C)(C)C)CO2 [Compound 398] | +++ (+++ is >60%) | > 6.00 | 
16 | CC(=O)Nc1cccnc1CN1C(=O)c2cccc(c2)S(=O)(=O)Nc2nc(cc(-c3c(C)cccc3C)n2)OC[C@H]1CC(C)(C)C [Compound 393] |  |  | Ent. B Max Activity (%) (Table 9): +++ (+++ is >600%); pEC50 (Table 9): > 6.00
17 | CCCc1ccc(CN2C(=O)c3cccc(c3)S(=O)(=O)Nc3nc(cc(-c4c(C)cccc4C)n3)OC[C@H]2CC(C)(C)C)cc1 [Compound 793] |  |  | Ent. B Max Activity (%) (Table 9): +++ (+++ is >600%)
18 | Cc1cccc(C)c1-c1cc2nc(n1)NS(=O)(=O)c1cccc(c1)C(=O)N(Cc1cccc(CN(C)C)c1)[C@H](CC(C)C)CO2 [Compound 1102] | +++ (+++ is >60%) | > 6.00 | 
19 | COC(=O)N1CCn2ncc(CN3C(=O)c4cccc(c4)S(=O)(=O)Nc4nc(cc(-c5c(C)cccc5C)n4)OC[C@H]3CC(C)(C)C)c2C1 [Compound 403] | +++ (+++ is >60%) | > 6.00 | 
20 | Cc1cccc(C)c1-c1cc2nc(n1)NS(=O)(=O)c1cccc(c1)C(=O)N(CC1Cc3ccccc3C1)[C@H](CC(C)(C)C)CO2 [Compound 808] | +++ (+++ is >60%) | > 6.00 | 
21 | COCCCN1C(=O)c2cccc(c2)S(=O)(=O)Nc2nc(cc(-c3c(C)cccc3C)n2)OC[C@H]1CC(C)C [Compound 980] | +++ (+++ is >60%) | > 6.00 | 
22 | Cc1cccc(C)c1-c1cc2nc(n1)NS(=O)(=O)c1cccc(c1)C(=O)N(CCCC(=O)N(C)C)[C@H](CC(C)C)CO2 [Compound 92, 4-[(11R)-6-(2,6-Dimethylphenyl)-11-isobutyl-2,2,13-trioxo-9-oxa-2λ^6-thia-3,5,12,19-tetrazatricyclo[12.3.1.14,8]nonadeca-1(18),4(19),5,7,14,16-hexaen-12-yl]-N,N-dimethyl-butanamide] | +++ (+++ is >60%) | > 6.00 | 
23 | Cc1cccc(C)c1-c1cc2nc(n1)NS(=O)(=O)c1cccc(c1)C(=O)N(Cc1nc3ccccc3o1)[C@H](CC(C)(C)C)CO2 [Compound 803] |  |  | Ent. B Max Activity (%) (Table 9): +++ (+++ is >600%); pEC50 (Table 9): > 6.00
24 | Cc1cccc(C)c1-c1cc2nc(n1)NS(=O)(=O)c1cccc(c1)C(=O)N(CC13CCC(O)(CC1)CC3)[C@H](CC(C)(C)C)CO2 [Compound 800] |  |  | Ent. B Max Activity (%) (Table 9): +++ (+++ is >600%); pEC50 (Table 9): > 6.00
25 | Cc1cccc(C)c1-c1cc2nc(n1)NS(=O)(=O)c1cccc(c1)C(=O)N(CCCN(C)C)[C@H](CC(C)C)CO2 [Compound 411] |  |  | Ent. B Max Activity (Table 7): +++ (+++ is >60%); pEC50 (Table 7, human enteroid cells, 18-24 hours, acute 10 μM forskolin and 300 nM ivacaftor): > 6.00
26 | Cc1cccc(C)c1-c1cc2nc(n1)NS(=O)(=O)c1cccc(c1)C(=O)N(Cc1ccc(C(F)(F)F)cn1)[C@H](CC(C)(C)C)CO2 [Compound 806] |  |  | Ent. B Max Activity (%) (Table 9): +++ (+++ is >600%); pEC50 (Table 9): > 6.00
